Measured values: US20260028365A1 (BIOGEN MA INC., priority 2022, published 2026)

molecular target: Tyk2 (Homo sapiens (Human), UniProt P29597); assay: pSTAT4 Cell Assay (MSD, NK92 cells); assay type: cell-based; details: MSD
Procedure: The inhibitory potency of compounds of the disclosure against the Tyk2 kinase activity on STAT4 was evaluated using an MSD-platform plate-based assay format. NK92 cells natively expressing STAT4 and Tyk2 were serum-starved to reduce background phosphorylation levels, then cells were treated compounds for 1 hr with a 10-point four-fold dilution series starting at 10 μM. Cells were then stimulated with 30 ng/mL […] for 15 minutes. […] The data were normalized and the percent activity versus log concentration of compound were fitted with a 4-parameter logistic model to generate to generate IC50 curves.

Sequence of Tyk2 (P29597 whole entry): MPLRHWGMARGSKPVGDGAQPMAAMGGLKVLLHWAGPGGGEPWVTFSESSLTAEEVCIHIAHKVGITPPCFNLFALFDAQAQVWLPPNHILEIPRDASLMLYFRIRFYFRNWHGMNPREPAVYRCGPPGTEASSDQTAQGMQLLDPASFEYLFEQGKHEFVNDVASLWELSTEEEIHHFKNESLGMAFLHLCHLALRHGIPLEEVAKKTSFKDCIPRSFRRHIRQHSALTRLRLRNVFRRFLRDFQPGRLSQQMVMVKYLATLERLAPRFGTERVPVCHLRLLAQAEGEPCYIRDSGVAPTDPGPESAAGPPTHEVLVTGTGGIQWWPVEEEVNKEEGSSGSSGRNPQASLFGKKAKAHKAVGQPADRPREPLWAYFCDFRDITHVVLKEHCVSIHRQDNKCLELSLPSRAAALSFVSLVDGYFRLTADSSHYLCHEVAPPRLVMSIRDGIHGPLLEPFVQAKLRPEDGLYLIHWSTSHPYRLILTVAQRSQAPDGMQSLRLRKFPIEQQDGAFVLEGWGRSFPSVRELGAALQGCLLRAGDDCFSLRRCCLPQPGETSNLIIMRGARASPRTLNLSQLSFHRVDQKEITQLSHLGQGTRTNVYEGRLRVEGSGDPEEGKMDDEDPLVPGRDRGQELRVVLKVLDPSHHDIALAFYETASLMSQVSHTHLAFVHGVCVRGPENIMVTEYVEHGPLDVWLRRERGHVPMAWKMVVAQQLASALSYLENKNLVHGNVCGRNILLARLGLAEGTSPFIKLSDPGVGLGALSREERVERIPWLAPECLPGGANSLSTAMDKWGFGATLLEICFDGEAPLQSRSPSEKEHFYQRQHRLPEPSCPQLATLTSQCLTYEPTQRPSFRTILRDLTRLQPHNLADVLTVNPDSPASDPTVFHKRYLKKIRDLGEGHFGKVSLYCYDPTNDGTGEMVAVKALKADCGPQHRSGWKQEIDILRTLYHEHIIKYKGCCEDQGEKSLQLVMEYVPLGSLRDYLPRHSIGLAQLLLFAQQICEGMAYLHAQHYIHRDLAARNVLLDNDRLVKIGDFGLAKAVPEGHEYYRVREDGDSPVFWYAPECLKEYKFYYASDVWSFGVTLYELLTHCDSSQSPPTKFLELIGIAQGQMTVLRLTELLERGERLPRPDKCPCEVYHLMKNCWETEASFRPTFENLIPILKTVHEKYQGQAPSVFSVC

`CC(=O)Nc1cc(Nc2cc(C)nc(C(C)(F)F)n2)c(-c2ccc([C@H]3COCCN3C)cn2)cn1` (single isomer, unassigned) [Example 645, (S)-N-(4′-((2-(1,1-difluoroethyl)-6-methylpyrimidin-4-yl)amino)-5-(4-methylmorpholin-3-yl)-[2,3′-bipyridin]-6′-yl)acetamide or (R)-N-(4′-((2-(1,1-difluoroethyl)-6-methylpyrimidin-4-yl)amino)-5-(4-methylmorpholin-3-yl)-[2,3′-bipyridin]-6′-yl)acetamide] and `CC(=O)Nc1cc(Nc2cc(C)nc(C(C)(F)F)n2)c(-c2ccc([C@@H]3COCCN3C)cn2)cn1` (single isomer, unassigned) [Example 646, (R)-N-(4′-((2-(1,1-difluoroethyl)-6-methylpyrimidin-4-yl)amino)-5-(4-methylmorpholin-3-yl)-[2,3′-bipyridin]-6′-yl)acetamide or (S)-N-(4′-((2-(1,1-difluoroethyl)-6-methylpyrimidin-4-yl)amino)-5-(4-methylmorpholin-3-yl)-[2,3′-bipyridin]-6′-yl)acetamide] cannot be ordered by IC50: ≤ 10 nM for the first, ≤ 10 nM for the second.

`CC(=O)Nc1cc(Nc2ccnc(C(C)(F)F)n2)c(OC(F)F)cn1` [Example 6, N-(4-((2-(1,1-difluoroethyl)pyrimidin-4-yl)amino)-5-(difluoromethoxy)pyridin-2-yl)acetamide] and `CC(=O)Nc1cc(Nc2ccnc(C(C)(F)F)n2)c(OC2CCC2)cn1` [Example 7, N-(5-cyclobutoxy-4-((2-(1,1-difluoroethyl)pyrimidin-4-yl)amino)pyridin-2-yl)acetamide] cannot be ordered by IC50: ≥ 1000 nM for the first, 100 to 1000 nM for the second.

`CC(=O)Nc1cc(Nc2cc(C)nc(C(C)(F)F)n2)c(OCC2(C)CC2)cn1` [Example 58, N-(4-((2-(1,1-difluoroethyl)-6-methylpyrimidin-4-yl)amino)-5-((1-methylcyclopropyl)methoxy)pyridin-2-yl)acetamide] and `CC(=O)Nc1cc(Nc2cc(C)nc(C(C)(F)F)n2)c(OCC23CC(C2)C3)cn1` [Example 100, N-(5-(bicyclo[1.1.1]pentan-1-ylmethoxy)-4-((2-(1,1-difluoroethyl)-6-methylpyrimidin-4-yl)amino)pyridin-2-yl)acetamide] cannot be ordered by IC50: 10 to 100 nM for the first, ≤ 10 nM for the second.

`COCCOc1cnc(NC(C)=O)cc1Nc1cccc(C(F)CF)n1` (centres unmarked) [Example 73, N-(4-((6-(1,2-difluoroethyl)pyridin-2-yl)amino)-5-(2-methoxyethoxy)pyridin-2-yl)acetamide] and `COCCCOc1cnc(NC(C)=O)cc1Nc1cc(C)nc(C(C)(F)F)n1` [Example 107, N-(4-((2-(1,1-difluoroethyl)-6-methylpyrimidin-4-yl)amino)-5-(3-methoxypropoxy)pyridin-2-yl)acetamide] fall in the same range of IC50: 10 to 100 nM for the first, 10 to 100 nM for the second.

First: CNC(=O)COc1cnc(NC(C)=O)cc1Nc1cc(C)nc(C(C)(F)F)n1 [Example 102, 2-((6-acetamido-4-((2-(1,1-difluoroethyl)-6-methylpyrimidin-4-yl)amino)pyridin-3-yl)oxy)-N-methylacetamide]
Second: CC(=O)Nc1cc(Nc2cc(C)nc(C(C)(F)F)n2)c(OCC(=O)N(C)C)cn1 [Example 103, 2-((6-acetamido-4-((2-(1,1-difluoroethyl)-6-methylpyrimidin-4-yl)amino)pyridin-3-yl)oxy)-N,N-dimethylacetamide]
The IC50 of the first is lower: 10 to 100 nM for the first, 100 to 1000 nM for the second. The first is the more potent here.

`CC(=O)Nc1cc(Nc2cc(C)nc(C(C)(F)F)n2)c(OCCC(F)F)cn1` [Example 104, N-(4-((2-(1,1-difluoroethyl)-6-methylpyrimidin-4-yl)amino)-5-(3,3-difluoropropoxy)pyridin-2-yl)acetamide] and `CCCCOc1cnc(NC(C)=O)cc1Nc1cc(C)nc(C(C)(F)F)n1` [Example 105, N-(5-butoxy-4-((2-(1,1-difluoroethyl)-6-methylpyrimidin-4-yl)amino)pyridin-2-yl)acetamide] cannot be ordered by IC50: 10 to 100 nM for the first, ≤ 10 nM for the second.

`CC(=O)Nc1cc(Nc2cc(C)nc(C(C)(F)F)n2)c(OCCN2CCN(C)CC2)cn1` [Example 106, N-(4-((2-(1,1-difluoroethyl)-6-methylpyrimidin-4-yl)amino)-5-(2-(4-methylpiperazin-1-yl)ethoxy)pyridin-2-yl)acetamide] and `CC(=O)Nc1cc(Nc2cc(C)nc(C(C)(F)F)n2)c(OCCOC(C)(C)C)cn1` [Example 113, N-(5-(2-(tert-butoxy)ethoxy)-4-((2-(1,1-difluoroethyl)-6-methylpyrimidin-4-yl)amino)pyridin-2-yl)acetamide] cannot be ordered by IC50: 10 to 100 nM for the first, ≤ 10 nM for the second.

`CC(=O)Nc1cc(Nc2cc(C)nc(C(C)(F)F)n2)c(OCc2nccs2)cn1` [Example 108, N-(4-((2-(1,1-difluoroethyl)-6-methylpyrimidin-4-yl)amino)-5-(thiazol-2-ylmethoxy)pyridin-2-yl)acetamide] and `CC(=O)Nc1cc(Nc2cc(C)nc(C(C)(F)F)n2)c(OCc2nc(C)cs2)cn1` [Example 112, N-(4-((2-(1,1-difluoroethyl)-6-methylpyrimidin-4-yl)amino)-5-((4-methylthiazol-2-yl)methoxy)pyridin-2-yl)acetamide] fall in the same range of IC50: 10 to 100 nM for the first, 10 to 100 nM for the second.

`CCC1(COc2cnc(NC(C)=O)cc2Nc2cc(C)nc(C(C)(F)F)n2)COC1` [Example 109, N-(4-((2-(1,1-difluoroethyl)-6-methylpyrimidin-4-yl)amino)-5-((3-ethyloxetan-3-yl)methoxy)pyridin-2-yl)acetamide] and `CC(=O)Nc1cc(Nc2cc(C)nc(C(C)(F)F)n2)c(OC[C@@H]2COC(C)(C)O2)cn1` [Example 110, (R)-N-(4-((2-(1,1-difluoroethyl)-6-methylpyrimidin-4-yl)amino)-5-((2,2-dimethyl-1,3-dioxolan-4-yl)methoxy)pyridin-2-yl)acetamide] fall in the same range of IC50: 10 to 100 nM for the first, 10 to 100 nM for the second.

Compared with `CC(=O)Nc1cc(Nc2cc(C)nc(C(C)(F)F)n2)c(OCc2csnc2C)cn1` [Example 111, N-(4-((2-(1,1-difluoroethyl)-6-methylpyrimidin-4-yl)amino)-5-((3-methylisothiazol-4-yl)methoxy)pyridin-2-yl)acetamide], `CC(=O)Nc1cc(Nc2cc(C)nc(C(C)(F)F)n2)c(OCc2cc(C)sn2)cn1` [Example 115, N-(4-((2-(1,1-difluoroethyl)-6-methylpyrimidin-4-yl)amino)-5-((5-methylisothiazol-3-yl)methoxy)pyridin-2-yl)acetamide] is lower in IC50: 100 to 1000 nM for the first, ≤ 10 nM for the second.

`COc1cc(COc2cnc(NC(C)=O)cc2Nc2cc(C)nc(C(C)(F)F)n2)ccn1` [Example 114, N-(4-((2-(1,1-difluoroethyl)-6-methylpyrimidin-4-yl)amino)-5-((2-methoxypyridin-4-yl)methoxy)pyridin-2-yl)acetamide] and `CC(=O)Nc1cc(Nc2cc(C)nc(C(C)(F)F)n2)c(OCc2ccnc(F)c2)cn1` [Example 120, N-(4-((2-(1,1-difluoroethyl)-6-methylpyrimidin-4-yl)amino)-5-((2-fluoropyridin-4-yl)methoxy)pyridin-2-yl)acetamide] fall in the same range of IC50: 10 to 100 nM for the first, 10 to 100 nM for the second.

`CC(=O)Nc1cc(Nc2cc(C)nc(C(C)(F)F)n2)c(OCc2ccc(C)nc2)cn1` [Example 116, N-(4-((2-(1,1-difluoroethyl)-6-methylpyrimidin-4-yl)amino)-5-((6-methylpyridin-3-yl)methoxy)pyridin-2-yl)acetamide] and `COc1ccc(COc2cnc(NC(C)=O)cc2Nc2cc(C)nc(C(C)(F)F)n2)nc1` [Example 127, N-(4-((2-(1,1-difluoroethyl)-6-methylpyrimidin-4-yl)amino)-5-((5-methoxypyridin-2-yl)methoxy)pyridin-2-yl)acetamide] cannot be ordered by IC50: 10 to 100 nM for the first, ≤ 10 nM for the second.

`CC(=O)Nc1cc(Nc2cc(C)nc(C(C)(F)F)n2)c(OCc2csc(C)n2)cn1` [Example 117, N-(4-((2-(1,1-difluoroethyl)-6-methylpyrimidin-4-yl)amino)-5-((2-methylthiazol-4-yl)methoxy)pyridin-2-yl)acetamide] and `CC(=O)Nc1cc(Nc2cc(C)nc(C(C)(F)F)n2)c(OCc2nnc(C)s2)cn1` [Example 118, N-(4-((2-(1,1-difluoroethyl)-6-methylpyrimidin-4-yl)amino)-5-((5-methyl-1,3,4-thiadiazol-2-yl)methoxy)pyridin-2-yl)acetamide] cannot be ordered by IC50: ≤ 10 nM for the first, 10 to 100 nM for the second.

`CC(=O)Nc1cc(Nc2cc(C)nc(C(C)(F)F)n2)c(OCc2cc(C)no2)cn1` [Example 121, N-(4-((2-(1,1-difluoroethyl)-6-methylpyrimidin-4-yl)amino)-5-((3-methylisoxazol-5-yl)methoxy)pyridin-2-yl)acetamide] and `CC(=O)Nc1cc(Nc2cc(C)nc(C(C)(F)F)n2)c(OCc2cnco2)cn1` [Example 122, N-(4-((2-(1,1-difluoroethyl)-6-methylpyrimidin-4-yl)amino)-5-(oxazol-5-ylmethoxy)pyridin-2-yl)acetamide] cannot be ordered by IC50: 10 to 100 nM for the first, ≤ 10 nM for the second.

`CC(=O)Nc1cc(Nc2cc(C)nc(C(C)(F)F)n2)c(OCc2cc(C)cc(C)n2)cn1` [Example 123, N-(4-((2-(1,1-difluoroethyl)-6-methylpyrimidin-4-yl)amino)-5-((4,6-dimethylpyridin-2-yl)methoxy)pyridin-2-yl)acetamide] and `COc1ccnc(COc2cnc(NC(C)=O)cc2Nc2cc(C)nc(C(C)(F)F)n2)c1` [Example 128, N-(4-((2-(1,1-difluoroethyl)-6-methylpyrimidin-4-yl)amino)-5-((4-methoxypyridin-2-yl)methoxy)pyridin-2-yl)acetamide] fall in the same range of IC50: 10 to 100 nM for the first, 10 to 100 nM for the second.

`CC(=O)Nc1cc(Nc2cc(C)nc(C(C)(F)F)n2)c(OC[C@H]2COC(C)(C)O2)cn1` [Example 124, (S)-N-(4-((2-(1,1-difluoroethyl)-6-methylpyrimidin-4-yl)amino)-5-((2,2-dimethyl-1,3-dioxolan-4-yl)methoxy)pyridin-2-yl)acetamide] and `CC(=O)Nc1cc(Nc2cc(C)nc(C(C)(F)F)n2)c(OCc2cnccn2)cn1` [Example 126, N-(4-((2-(1,1-difluoroethyl)-6-methylpyrimidin-4-yl)amino)-5-(pyrazin-2-ylmethoxy)pyridin-2-yl)acetamide] cannot be ordered by IC50: ≤ 10 nM for the first, 10 to 100 nM for the second.
